# Source: PubChem BioAssay AID1259411 (Chemical Carcinogenesis Research Information System (CCRIS), 2018)
# The source made the active and inactive calls. How the calls were made is not given here.
# Tested on: rodent carcinogenicity bioassays, tumor incidence
# Experiment: CCRIS carcinogenicity studies
# Settings: Dose: 0
# Method in brief: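 Archive of carcinogenicity, mutagenicity, tumor promotion and tumor inhibition results drawn from journals, NCI reports and other sources, expert-reviewed; covers 1985-2011 and is no longer updated.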
SMILES,"carcinogen call (Species: MOUSE, Strain/Sex: ICR/FEMALE, Route: DERMAL, 1 MG IN 0.1 ML DISTILLED WATER 2/WK FOR A MEAN TOTAL DOSE OF 121.4 MG (STUDY DURATION: 18 MO))","carcinogen call (Species: MOUSE, Strain/Sex: ICR/MALE, Route: DERMAL, 1 MG IN 0.1 ML DISTILLED WATER 2/WK FOR A MEAN TOTAL DOSE OF 121.4 MG (STUDY DURATION: 18 MO))","carcinogen call (Species: HAMSTER, Strain/Sex: SYRIAN/FEMALE, Route: GAVAGE, 7.4 MG/KG 1/WK FOR 40 WK (TOTAL DOSE: 0; 2.1 MMOL) (STUDY DURATION: LIFETIME), 7.4 MG/KG 1/WK FOR 40 WK (TOTAL DOSE: 0; 2.1 MMOL) (STUDY DURATION: LIFETIME), Tumor Site: Type of Lesion: LIVER: HEPATOCELLULAR ADENOMA, LUNG: ALVEOLAR/BRONCHIAL ADENOMA, NASAL MUCOSA: ADENOMA, URINARY BLADDER: SARCOMA, UNDIFF, Tumor Site: Type of Lesion: LIVER: HEPATOCELLULAR ADENOMA, LUNG: ALVEOLAR/BRONCHIAL ADENOMA, NASAL MUCOSA: ADENOMA, URINARY BLADDER: SARCOMA, UNDIFF)","carcinogen call (Species: HAMSTER, Strain/Sex: SYRIAN/MALE, Route: GAVAGE, 7.4 MG/KG 1/WK FOR 40 WK (TOTAL DOSE: 0; 2.1 MMOL) (STUDY DURATION: LIFETIME), 7.4 MG/KG 1/WK FOR 40 WK (TOTAL DOSE: 0; 2.1 MMOL) (STUDY DURATION: LIFETIME), Tumor Site: Type of Lesion: LIVER: HEPATOCELLULAR ADENOMA, CHOLANGIOMA, HEMANGIOSARCOMA, LUNG: ALVEOLAR/ BRONCHIAL ADENOMA, NASAL MUCOSA: ADENOMA, U, Tumor Site: Type of Lesion: LIVER: HEPATOCELLULAR ADENOMA, CHOLANGIOMA, HEMANGIOSARCOMA, LUNG: ALVEOLAR/ BRONCHIAL ADENOMA, NASAL MUCOSA: ADENOMA, U)","carcinogen call (Species: RAT, Strain/Sex: F344/MALE, Route: GAVAGE, 93 MG/ML IN CORN OIL 2/WK FOR 30 WK, STUDY DURATION: 50 WK, 93 MG/ML IN CORN OIL 2/WK FOR 30 WK, STUDY DURATION: 50 WK, Tumor Site: Type of Lesion: LUNG: ADENOCARCINOMA, ADENOMA, NASAL CAVITY: CARCINOMA, LIVER: HEPATOCELLULAR TUMOR, BLADDER, Tumor Site: Type of Lesion: LUNG: ADENOCARCINOMA, ADENOMA, NASAL CAVITY: CARCINOMA, LIVER: HEPATOCELLULAR TUMOR, BLADDER)"
CCN(CC)c1ccc2c(-c3ccccc3C(=O)O)c3ccc(=[N+](CC)CC)cc-3oc2c1,inactive; negative,inactive; negative,,,
CCCCCCCCN(C)N=O,,,active; positive,active; positive,active; positive
